Where “and” joins values, the source holds several entries; their conditions need not be identical. Equal values may be shown once. Numbers after ± are expanded uncertainties.
Test: Henry's Law constant (molality scale); of the first substance listed, at infinite dilution; xn = mol fraction of the nth substance listed
Details: Liquid, Chromatography, x1 = 0

| Henry's Law constant (296.15 K) | Henry's Law constant (333.15 K) | Henry's Law constant (273.25 K) | Henry's Law constant (298.15 K) | Henry's Law constant (311.15 K) | Henry's Law constant (332.15 K) | SMILES | Henry's Law constant (274.15 K) | Henry's Law constant (310.15 K) | Henry's Law constant (320.15 K) | Henry's Law constant (326.15 K) | Henry's Law constant (331.15 K) | Henry's Law constant (294.65 K) | Henry's Law constant (313.15 K) |
| --- | --- | --- | --- | --- | --- | --- | --- | --- | --- | --- | --- | --- | --- |
| 31.9 kPa·kg/mol |  |  |  |  |  | ClC/C=C\CCl [cis-1,4-dichloro-2-butene] + O | 3.03 kPa·kg/mol | 102 kPa·kg/mol | 182 kPa·kg/mol | 1380 kPa·kg/mol | 492 kPa·kg/mol |  |  |
| 2250 ± 670 kPa·kg/mol |  |  |  |  |  | C1CCCCC1 [cyclohexane] + O | 1010 ± 300 kPa·kg/mol |  |  | 15700 ± 4700 kPa·kg/mol |  | 2250 kPa·kg/mol | 9460 ± 2800 kPa·kg/mol |
|  |  |  |  |  |  | FC(F)(Cl)Cl [dichlorodifluoromethane] + O | 1660 ± 500 kPa·kg/mol |  |  | 22600 ± 6800 kPa·kg/mol |  |  | 40000 ± 12000 kPa·kg/mol |
| 250 ± 75 kPa·kg/mol |  |  |  |  |  | ClCCl [dichloromethane] + O | 85.1 ± 26 kPa·kg/mol |  |  | 686 ± 210 kPa·kg/mol |  | 222 kPa·kg/mol and 214 kPa·kg/mol | 523 ± 160 kPa·kg/mol |
|  |  |  |  |  |  | CI [iodomethane] + O | 251 ± 75 kPa·kg/mol |  |  | 1560 ± 470 kPa·kg/mol |  |  | 814 ± 240 kPa·kg/mol |
| 7.53 ± 3 kPa·kg/mol | 125 ± 50 kPa·kg/mol |  |  |  |  | COC(C)=O [methyl ethanoate] + O | 1.06 ± 0.42 kPa·kg/mol | 34.1 ± 14 kPa·kg/mol | 52.4 ± 21 kPa·kg/mol |  | 83.1 ± 33 kPa·kg/mol | 5.33 kPa·kg/mol and 7.39 kPa·kg/mol |  |
| 24.5 ± 7.4 kPa·kg/mol |  |  |  |  |  | C=C(C)C(=O)OC [methyl methacrylate] + O | 2.57 ± 0.77 kPa·kg/mol | 85.1 ± 26 kPa·kg/mol | 132 ± 40 kPa·kg/mol |  | 250 ± 75 kPa·kg/mol | 24.2 kPa·kg/mol and 12.7 kPa·kg/mol |  |
| 34.7 ± 10 kPa·kg/mol | 278 ± 83 kPa·kg/mol |  |  |  |  | c1ccc2ccccc2c1 [naphthalene] + O | 5 ± 1.5 kPa·kg/mol | 90.2 ± 27 kPa·kg/mol | 116 ± 35 kPa·kg/mol |  | 196 ± 59 kPa·kg/mol | 31.7 kPa·kg/mol and 17.8 kPa·kg/mol |  |
|  |  | 0.088 kPa·kg/mol | 2.14 kPa·kg/mol | 1.19 kPa·kg/mol | 22.9 kPa·kg/mol | CC(C)O [propan-2-ol] + O |  |  |  |  |  |  |  |
| 505 kPa·kg/mol |  |  |  |  |  | CCCc1ccccc1 [propylbenzene] + O | 182 kPa·kg/mol | 412 kPa·kg/mol |  | 3160 kPa·kg/mol | 1920 kPa·kg/mol |  | 1900 kPa·kg/mol |
| 31.6 ± 13 kPa·kg/mol |  |  |  |  |  | ClC/C=C/CCl [trans-1,4-dichloro-2-butene] + O | 3.9 ± 1.6 kPa·kg/mol | 96.4 ± 39 kPa·kg/mol | 175 ± 70 kPa·kg/mol |  | 155 ± 62 kPa·kg/mol | 28.2 kPa·kg/mol and 17.7 kPa·kg/mol |  |

| SMILES | Henry's Law constant (296.15 K) | Henry's Law constant (333.15 K) | Henry's Law constant (273.25 K) | Henry's Law constant (298.15 K) | Henry's Law constant (311.15 K) | Henry's Law constant (332.15 K) | Henry's Law constant (274.15 K) | Henry's Law constant (310.15 K) | Henry's Law constant (320.15 K) | Henry's Law constant (326.15 K) | Henry's Law constant (331.15 K) | Henry's Law constant (294.65 K) | Henry's Law constant (313.15 K) |
| --- | --- | --- | --- | --- | --- | --- | --- | --- | --- | --- | --- | --- | --- |
| BrCBr [dibromomethane] + O | 72.9 ± 22 kPa·kg/mol |  |  |  |  |  | 24 ± 7.2 kPa·kg/mol | 154 ± 46 kPa·kg/mol | 278 ± 83 kPa·kg/mol |  | 444 ± 130 kPa·kg/mol | 67.5 kPa·kg/mol and 64.7 kPa·kg/mol |  |
| CCOCC [diethyl ether] + O | 77 ± 23 kPa·kg/mol |  |  |  |  |  | 16 ± 5 kPa·kg/mol | 206 ± 62 kPa·kg/mol | 427 ± 130 kPa·kg/mol |  | 803 ± 240 kPa·kg/mol | 68 kPa·kg/mol and 70 kPa·kg/mol |  |
| C=C(C)C#N [isopropenylnitrile] + O | 16.7 ± 6.7 kPa·kg/mol | 261 ± 100 kPa·kg/mol |  |  |  |  | 2.92 ± 1.2 kPa·kg/mol | 50.9 ± 20 kPa·kg/mol | 68.5 ± 27 kPa·kg/mol |  | 147 ± 59 kPa·kg/mol | 14.7 kPa·kg/mol and 16.8 kPa·kg/mol |  |
| O=[N+]([O-])c1ccccc1 [nitrobenzene] + O | 2.58 ± 0.78 kPa·kg/mol |  |  |  |  |  | 0.175 ± 0.053 kPa·kg/mol | 4.13 ± 1.2 kPa·kg/mol | 8.57 ± 2.6 kPa·kg/mol |  | 17.6 ± 5.3 kPa·kg/mol | 1.06 kPa·kg/mol and 1.11 kPa·kg/mol |  |
| ClC(Cl)C(Cl)(Cl)Cl [pentachloroethane] + O | 163 ± 65 kPa·kg/mol |  |  |  |  |  | 43.4 ± 17 kPa·kg/mol | 268 ± 110 kPa·kg/mol | 505 ± 200 kPa·kg/mol | 1070 ± 430 kPa·kg/mol | 989 ± 400 kPa·kg/mol | 133 kPa·kg/mol and 141 kPa·kg/mol | 471 ± 190 kPa·kg/mol |
| CCC#N [propanenitrile] + O | 2.78 ± 0.83 kPa·kg/mol |  |  |  |  |  | 0.302 ± 0.091 kPa·kg/mol | 5.36 ± 1.6 kPa·kg/mol | 11 ± 3.3 kPa·kg/mol |  | 14 ± 4.2 kPa·kg/mol | 2.3 kPa·kg/mol and 2.2 kPa·kg/mol |  |
| ClC(Cl)(Cl)Cl [tetrachloromethane] + O | 1690 ± 510 kPa·kg/mol |  |  |  |  |  | 696 ± 210 kPa·kg/mol |  |  | 7590 ± 2300 kPa·kg/mol |  | 1770 kPa·kg/mol and 1580 kPa·kg/mol | 4230 ± 1300 kPa·kg/mol |

Source: the NIST ThermoML archive (doi:10.1021/je3010535)
